Data on one compound can be found in patent US20130310256A1, “HERBICIDAL COMPOSITIONS COMPRISING 4-AMINO-3-CHLORO-5-FLUORO-6-(4-CHLORO-2-FLUORO-3-METHOXYPHENYL) PYRIDINE-2-CARBOXYLIC ACID OR A DERIVATIVE THEREOF AND VLCFA AND LIPID SYNTHESIS INHIBITING HERBICIDES” (DOW AGROSCIENCES LLC, priority 2008, published 2013).

Assay [1] deals with XANST. As to the kind of experiment: Example IV: pre-emergence soil-applied weed control, greenhouse. To be noted: 29 DAA. It counts as in vivo, Xanthium strumarium L. (common cocklebur). The source says: Seeds or nutlets of the desired test plant species were planted in a soil matrix prepared by mixing a loam soil (32 percent silt, 23 percent clay, and 45 percent sand, with a pH of about 6.5 and an organic matter content of about 1.9 percent) and calcareous grit in an 80 to 20 ratio. The soil matrix was contained in plastic pots with a volume of 1 quart and a surface area of 83.6 square centimeters (cm^2).
Treatments consisted of the benzyl ester of 4-amino-3-chloro-5-fluoro-6-(4-chloro-2-fluoro-3-methoxy-phenyl)pyridine-2-carboxylic acid (compound A) formulated as an SC (suspension concentrate) and various herbicidal components alone and in combination. Forms of compound A were applied on an acid equivalent basis.
Other herbicidal components were applied on an active ingredient basis and included very long chain fatty acid (VLCFA) synthesis-inhibiting and fatty acid/lipid synthesis-inhibiting herbicides alachlor (technical grade material), dimethenamid-P formulated as Outlook®, and S-metolachlor formulated as Dual® II Magnum.
Treatment requirements were calculated based upon the rates being tested, the concentration of active ingredient or acid equivalent in the formulation, and a 12 mL application volume at a rate of 187 L/ha.
For treatments comprised of formulated compounds, measured amounts of compounds were placed individually in 25 mL glass vials and diluted in a volume of 1.25% (v/v) Agri-Dex® crop oil concentrate (COC) to obtain 12× stock solutions. […] Application solutions were prepared by adding an appropriate amount of each stock solution (e.g., 1 mL) and diluted to the appropriate final concentrations with the addition of 10 mL of an aqueous mixture of 1.25% (v/v) COC so that the final spray solutions contained 1.25% (v/v) COC.
For treatments comprised of technical compounds, weighed amounts can be placed individually in 25 mL glass vials and dissolved in a volume of 97:3 (v/v) acetone/DMSO to obtain 12× stock solutions. […] Application solutions can be prepared by adding an appropriate amount of each stock solution (e.g., 1 mL) and diluted to the appropriate final concentrations with the addition of 10 mL of an aqueous mixture of 1.5% (v/v) COC so that the final spray solutions contain 1.25% (v/v) COC. […]
For treatments comprised of formulated and technical compounds, weighed amounts of the technical materials were placed individually in 25 mL glass vials and dissolved in a volume of 97:3 (v/v) acetone/DMSO to obtain 12× stock solutions, and measured amounts of the formulated compounds were placed individually in 25 mL glass vials and diluted in a volume of 1.5% (v/v) COC or water to obtain 12× stock solutions. […]

Assay [2] relates to ECHCO. As to the kind of experiment: Example I: postemergence foliar-applied weed control, greenhouse. It counts as in vivo, Echinochloa colona (L.) Link (junglerice). To be noted: 275 gai/ha; foliar. The essentials:
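Plants grown in loam/sandy loam–calcareous grit soil (80:20) in greenhouse, 14 hr photoperiod, about 29° C. day/26° C. night, treated postemergence at first to fourth true leaf stage. Foliar spray at 187 L/ha with 1.25% (v/v) crop oil concentrate; Compound A dosed on acid equivalent basis, partners on active ingredient basis.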

Assay [3] has as its system CYPES. The description is as above. The format is in vivo, Cyperus esculentus L. (yellow nutsedge). Particulars: 275 gai/ha.

As for `COC[C@H](C)N(C(=O)CCl)c1c(C)csc1C` [Dimethenamid-P, (S) 2-chloro-N-(2,4-dimethyl-3-thienyl)-N-(2-methoxy-1-methylethyl)acetamide], the “Visual Weed Control XANST Obs” value in assay [1] (410 gai/ha) was determined as 23%; in assay [1] (820 gai/ha), 30%; in assay [1] (1640 gai/ha), 50%. In assay [2], the “Visual Weed Control (%) - 20 DAA ECHCO Obs” value came out at 70%. Also, in assay [3], the “Visual Weed Control (%) - 20 DAA CYPES Obs” value is recorded as 0%.
